Experimental data taken from patent US20240216421A1, “COMBINATION PRODUCT AND METHODS FOR PREVENTING THE EMERGENCE OF ANTIBIOTIC-RESISTANT BACTERIA UNDER ANTIBIOTIC TREATMENT” (DIOTHERIS, priority 2021, published 2024).
Entries after “also recorded” stand apart in the source; their conditions may differ.

Tests used:
[1] = system: S. aureus ATCC 29213; assay: Co-culture on mupirocin-containing blood agar: growth of mupirocin-resistant mutant colonies; format: cell-based, Staphylococcus aureus; details: ≈10^9 CFU S. aureus on 0.2 μm filter, blood agar with 8 μg/mL mupirocin, no non-pathogenic microorganism
Procedure: (§1) A 5 McFarland suspension of Corynebacterium aurimucosum CIP 102616 was prepared as described in Example 2, and 300 μl of this suspension (≈10^7 CFU) were inoculated by swabbing on a 90 mm diameter blood agar plate containing 8 μg/mL of mupirocin; 300 μl of saline was inoculated as “negative control” (mupirocin-containing agar plate not inoculated with C. aurimucosum). Materials and methods were otherwise as described in Example 2, except that ≈10^9 CFU of S. aureus (ATCC 29213 or NCTC 12493) were spread out on the 0.2 μm filter placed on top of the agar plate.

[2] = system: S. aureus NCTC 12493; assay: as above; format: cell-based, Staphylococcus aureus; details: ≈10^9 CFU S. aureus on 0.2 μm filter, blood agar with 8 μg/mL mupirocin, no non-pathogenic microorganism
Procedure: as §1

[3] = system: Corynebacterium species; details: natural resistance; mupirocin resistance breakpoint >2 μg/mL; cited from earlier work
[4] = system: S. aureus ATCC 29213; assay: Co-culture on fosfomycin-containing blood agar: growth of fosfomycin-resistant mutant colonies; format: cell-based, Staphylococcus aureus; details: ≈10^7 CFU S. aureus on 0.2 μm filter, blood agar with 50 μg/mL fosfomycin, no non-pathogenic microorganism
Procedure: (§2) A 5 McFarland suspension of Corynebacterium aurimucosum CIP 102616 was prepared from a 48 h-culture on Columbia 5% sheep blood agar at 35+/−2° C., and 300 μl of this suspension (≈10^7 CFU) were inoculated by swabbing on a 90 mm diameter blood agar plate containing 50 μg/mL of fosfomycin; 300 μl of saline was inoculated as “negative control” (fosfomycin-containing agar plate not inoculated with C. aurimucosum). A 10 McFarland suspension of S. aureus (ATCC 29213 or NCTC 12493) was prepared as described in Example 1, and 20 μl drops of this suspension (≈10^7 CFU) were spread out on a 47-mm diameter, 0.2 μm filter placed on top of the agar plate. Plates were incubated at 35+/−2° C., and the growth of fosfomycin-resistant mutants was determined as described in Example 1. Fosfomycin MIC values of bacteria forming fosfomycin-resistant colonies on “negative-control” plates were determined using the agar dilution method.
(§3) Serial 1/5 dilutions were prepared from a 100 McFarland suspension of C. aurimucosum and 250 μl of each bacterial suspension was inoculated by swabbing on a 90 mm diameter blood agar plate containing 50 μg/mL of fosfomycin, in order to obtain ≈10^9, ≈2×10^8, ≈4×10^7, ≈8×10^6, ≈1.6×10^6, ≈3.2×10^5, ≈6.4×10^4, ≈1.3×10^4, ≈2.5×10^3, ≈5×10^2, ≈10^2, and ≈20 CFU per plate. Materials and methods were otherwise as described in Example 2. […]

[5] = system: S. aureus NCTC 12493; assay: as above; format: cell-based, Staphylococcus aureus; details: ≈10^7 CFU S. aureus on 0.2 μm filter, blood agar with 50 μg/mL fosfomycin, no non-pathogenic microorganism
Procedure: as §2, §3

[6] = system: S. aureus fosfomycin-resistant mutants; assay: Fosfomycin MIC of bacteria forming colonies on negative-control plates, agar dilution method; format: cell-based, Staphylococcus aureus
Procedure: as §2

[7] = system: Corynebacterium species; details: natural resistance; fosfomycin resistance breakpoint >32 μg/mL; cited from earlier work
[8] = system: S. epidermidis Rif^R mutant; assay: Rifampicin MIC, agar dilution method; format: cell-based; details: Staphylococcus epidermidis, rifampicin resistance breakpoint MIC >16 μg/mL
[9] = system: C. aurimucosum Rif^R mutant; assay: Rifampicin MIC, agar dilution method; format: cell-based; details: Corynebacterium aurimucosum, rifampicin resistance breakpoint MIC >16 μg/mL
Procedure: Spontaneous rifampicin-resistant colonies were obtained in one step by plating ≈10^9 CFU of C. aurimucosum CIP 102616 on blood agar plates supplemented with 20 μg/mL of rifampicin. Five clones were re-isolated on rifampicin-containing plates, and one of them was selected (C. aurimucosum CIP 102616 Rif^R mutant).

[10] = system: S. aureus rifampicin-resistant mutants; assay: Rifampicin MIC of bacteria forming colonies on negative-control plates, agar dilution method; format: cell-based, Staphylococcus aureus
Procedure: A 5 McFarland suspension of CIP 102616 Rif^R was prepared from a 48 h-culture on Columbia 5% sheep blood agar at 35+/−2° C., and 300 μl of this suspension (≈10^7 CFU) was inoculated by swabbing on a 90 mm diameter blood agar plate containing 20 μg/mL of rifampicin; 300 μl of saline was inoculated as “negative control” (rifampicin-containing agar plate not inoculated with CIP 102616 Rif^R). Materials and methods were otherwise as described in Example 2, except that one 40 μl drop (≈10^7 CFU) was spread out on each filter. Rifampicin MIC values of bacteria forming rifampicin-resistant colonies on “negative-control” plates were determined using the agar dilution method.

Q: Which results are given for `C/C(=C\C(=O)OCCCCCCCCC(=O)O)C[C@@H]1OC[C@H](C[C@@H]2O[C@H]2[C@@H](C)[C@H](C)O)[C@@H](O)[C@H]1O` [mupirocin]?
A: mupirocin-resistant mutant colonies, mupirocin alone [1]: Colonies of mupirocin-resistant mutants were detected; mupirocin-resistant mutant colonies, mupirocin alone [2]: Colonies of mupirocin-resistant mutants were detected; mupirocin MIC values [3]: > 16 µg/mL

Q: For `C[C@@H]1O[C@@H]1P(=O)(O)O` [fosfomycin], which “fosfomycin-resistant mutant colonies, fosfomycin alone” value [4] is on record?
A: colonies of fosfomycin-resistant mutants were detected; also recorded: Fosfomycin-resistant colonies developed

Q: What about the “fosfomycin-resistant mutant colonies, fosfomycin alone” value [5] of the same compound?
A: colonies of fosfomycin-resistant mutants were detected; also recorded: Fosfomycin-resistant colonies developed

Q: What about the MIC ([6]; Staphylococcus aureus, read-out: fosfomycin MIC values of colonies on negative-control plates) of the same compound?
A: ≥ 32 µg/mL

Q: What about the “share of fosfomycin-resistant mutant colonies with MIC of 64 μg/mL or higher” value ([6]; agar dilution method) of the same compound?
A: ≈ 50%

Q: What about the “share of fosfomycin-resistant mutant colonies with MIC of 256 μg/mL or higher” value ([6]; agar dilution method) of the same compound?
A: ≈ 30%

Q: What about the “fosfomycin MIC values” [7] of the same compound?
A: > 256 µg/mL

Q: With `CO[C@H]1/C=C/O[C@@]2(C)Oc3c(C)c(O)c4c(O)c(c(/C=N/N5CCN(C)CC5)c(O)c4c3C2=O)NC(=O)/C(C)=C\C=C\[C@H](C)[C@H](O)[C@@H](C)[C@@H](O)[C@@H](C)[C@H](OC(C)=O)[C@@H]1C` [rifampicin] as the compound, how does the MIC [8] read?
A: > 256 µg/mL

Q: And the MIC [9]?
A: > 256 µg/mL

Q: What about the MIC ([10]; Staphylococcus aureus, read-out: rifampicin MIC values of colonies on negative-control plates) of the same compound?
A: ≥ 16 µg/mL

Q: And the “share of rifampicin-resistant mutants with MIC of 64 μg/mL or higher” value ([10]; agar dilution method)?
A: 100%

Q: What about the “share of rifampicin-resistant mutants with MIC of 128 μg/mL or higher” value ([10]; agar dilution method) of the same compound?
A: ≈ 75%

Q: And the “share of rifampicin-resistant mutants with MIC of 256 μg/mL or higher” value ([10]; agar dilution method)?
A: ≈ 25%
